# Results: US5968923A, “(Azetidin-1-ylalkyl) lactams as tachykinin antagonists” (Pfizer Inc., priority 1994, dated 1999)
# How the values were obtained:
# human NK2 receptor = target: T1, human NK2 receptor (Homo sapiens, UniProt P21452); test: Competition with [^125 I] NKA for binding to membranes from Chinese hamster ovary cells expressing the cloned human NK2 receptor (Method A); details: Chinese hamster ovary cell membranes; for IC50: read-out: METHOD A (pIC50) (converted)
# T1 construct: expressed in transfected cells; host or cells: Chinese hamster ovary (CHO) cells, membranes
# T1 sequence (P21452 1-398): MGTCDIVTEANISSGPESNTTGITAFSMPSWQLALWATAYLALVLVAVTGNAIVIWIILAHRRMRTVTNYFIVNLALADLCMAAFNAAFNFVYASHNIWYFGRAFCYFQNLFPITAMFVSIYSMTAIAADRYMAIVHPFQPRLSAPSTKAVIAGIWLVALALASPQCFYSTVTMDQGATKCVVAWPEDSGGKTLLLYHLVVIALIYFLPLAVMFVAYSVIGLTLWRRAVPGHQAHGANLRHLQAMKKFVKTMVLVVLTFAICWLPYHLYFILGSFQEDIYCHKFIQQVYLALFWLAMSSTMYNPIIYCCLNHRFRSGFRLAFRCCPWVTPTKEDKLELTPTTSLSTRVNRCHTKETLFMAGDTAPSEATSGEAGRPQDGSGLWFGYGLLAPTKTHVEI
# Procedure: The affinity of the compounds of formula (I) and their salts for the human NK2 receptor can be tested in vitro by testing their ability to compete with [^3 H] or [^125 I]NKA (neurokinin A) for binding to membranes prepared from Chinese hamster ovary cells expressing the cloned human NK2 receptor. In this method, washed Chinese hamster ovary cell membranes are prepared as described for the previous method where IM9 cells are used instead. The membranes are incubated (90 min, 25° C.) with [^3 H] NKA and with a range of concentrations of the test compound. Non-specific binding was determined in the presence of 10 μM NKA.
# (§1) A representative selection of the compounds of the Examples were tested in vitro for their affinity to the human NK2 receptor by testing their ability to compete with [^125 I] NKA for binding to membranes prepared from Chinese hamster ovary cells expressing the cloned human NK2 receptor (Method A) and for their ability to antagonise the contractile effects of [βAla^8 ] NKA(4-10) in the rabbit pulmonary artery (Method B) by the methods described on pages 40 and 41 of the specification.
# NK2 receptor = target: T2, NK2 receptor (Oryctolagus cuniculus, UniProt P79218); test: Antagonism of the contractile effects of [βAla^8 ] NKA(4-10) in the rabbit pulmonary artery (Method B); assay type: cell-based; details: agonist [βAla^8 ] NKA(4-10); for Kb: read-out: METHOD B (pA2) (converted)
# T2 construct: antagonise the contractile effects of [βAla^8 ]; NKA(4-10) in the rabbit pulmonary artery; from tissue; host or cells: rabbit pulmonary artery
# T2 sequence (P79218 1-384): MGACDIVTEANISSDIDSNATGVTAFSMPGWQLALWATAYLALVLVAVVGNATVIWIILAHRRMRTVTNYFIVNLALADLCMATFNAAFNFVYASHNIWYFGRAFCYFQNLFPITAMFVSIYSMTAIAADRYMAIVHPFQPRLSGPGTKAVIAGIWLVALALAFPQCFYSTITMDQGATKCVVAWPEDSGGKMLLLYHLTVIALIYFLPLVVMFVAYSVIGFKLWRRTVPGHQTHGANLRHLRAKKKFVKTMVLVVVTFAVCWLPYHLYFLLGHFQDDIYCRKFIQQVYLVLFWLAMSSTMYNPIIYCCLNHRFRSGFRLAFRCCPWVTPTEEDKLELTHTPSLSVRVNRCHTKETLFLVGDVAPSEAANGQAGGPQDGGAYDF
# Procedure: The NK2 receptor antagonist activity of the compounds of the formula (I) can be tested, in vitro, by testing their ability to antagonise the contractile effects of the selective NK2 receptor agonist [βAla^8 ]NKA(4-10) in the rabbit pulmonary artery, using the method of Patacchini and Maggi, Eur. J. Pharmacol., 236, 31-37 (1993).
# as §1
IC50 (human NK2 receptor),Kb (NK2 receptor),Compound,METHOD A (pIC50) (human NK2 receptor),METHOD B (pA2) (NK2 receptor)
63.1 nM,12.6 nM,O=C1CCC(CCN2CC(N3CC[S+]([O-])CC3)C2)(c2ccc(F)c(F)c2)CN1Cc1ccccc1 (stereo not drawn) [Example 14],,
1 nM,5.01 nM,O=C1CCC(CCN2CC(C(=O)N3CCCCC3)C2)(c2ccc(Cl)c(Cl)c2)CN1Cc1ccccc1 (stereo not drawn) [Example 31],,
0.316 nM,1.26 nM,CC1CCCCC1CN1CC(CCN2CC(N3CCOCC3)C2)(c2ccc(Cl)c(Cl)c2)CCC1=O (stereo not drawn) [Example 73],,
5.01 nM,0.794 nM,CC(c1ccccc1)N1CC(CCN2CC(N3CCOCC3)C2)(c2ccc(Cl)c(Cl)c2)CCC1=O (stereo not drawn) [Example 75 (enantiomeric pair A)],,
6.31 nM,2.51 nM,CS(=O)(=O)N1CCN(C2CN(CCC3(c4ccc(Cl)cc4)CCC(=O)N(CC4CCCCC4)C3)C2)CC1 (stereo not drawn) [Example 89],,
,,"O=C1CCC(CCN2CC(N3[C@@H]4CC[C@H]3C[C@@H](O)C4)C2)(c2ccc(Cl)c(Cl)c2)CN1Cc1ccccc1 (stereo partly drawn) [Example 104, 1-Benzyl-5-(3,4-dichlorophenyl)-5-(2-[3-(endo-3-hydroxy-8-azabicyolo[3,2,1]oct-8-yl)azetidin-1-yl]ethyl)-2-piperidone]",8.8,9.2
